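Method: 48-hour compound exposure of cells in 96-well plates, five concentrations, linear interpolation of endpoints. GI50 marks 50% less growth. At the TGI there is no net growth.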
Experiments:
Assay in all cases: NCI tumour cell line growth inhibition, 48 h
786-0 renal = tested on: 786-0 renal
A498 renal = tested on: A498 renal
A549 NSCLC = tested on: A549 NSCLC
ACHN renal = tested on: ACHN renal
BT-549 breast = tested on: BT-549 breast
CAKI-1 renal = tested on: CAKI-1 renal
CCRF-CEM leukemia = tested on: CCRF-CEM leukemia
COLO 205 colon = tested on: COLO 205 colon
DU-145 prostate = tested on: DU-145 prostate
EKVX NSCLC = tested on: EKVX NSCLC
HCC-2998 colon = tested on: HCC-2998 colon
HCT-116 colon = tested on: HCT-116 colon
HCT-15 colon = tested on: HCT-15 colon
HL-60(TB) leukemia = tested on: HL-60(TB) leukemia
HOP-62 NSCLC = tested on: HOP-62 NSCLC
HOP-92 NSCLC = tested on: HOP-92 NSCLC
HS 578T breast = tested on: HS 578T breast
HT29 colon = tested on: HT29 colon
IGROV1 ovarian = tested on: IGROV1 ovarian
K-562 leukemia = tested on: K-562 leukemia
KM12 colon = tested on: KM12 colon
LOX IMVI melanoma = tested on: LOX IMVI melanoma
MALME-3M melanoma = tested on: MALME-3M melanoma
MCF7 breast = tested on: MCF7 breast
MDA-MB-231 breast = tested on: MDA-MB-231 breast
MDA-MB-435 = tested on: MDA-MB-435
MOLT-4 leukemia = tested on: MOLT-4 leukemia
NCI-H226 lung = tested on: NCI-H226 lung
NCI-H23 lung = tested on: NCI-H23 lung
NCI-H460 lung = tested on: NCI-H460 lung
NCI-H522 lung = tested on: NCI-H522 lung
OVCAR-4 ovarian = tested on: OVCAR-4 ovarian
OVCAR-5 ovarian = tested on: OVCAR-5 ovarian
OVCAR-8 ovarian = tested on: OVCAR-8 ovarian
PC-3 prostate = tested on: PC-3 prostate
RPMI-8226 leukemia = tested on: RPMI-8226 leukemia
RXF 393 renal = tested on: RXF 393 renal
SF-268 CNS = tested on: SF-268 CNS
SF-295 CNS = tested on: SF-295 CNS
SF-539 CNS = tested on: SF-539 CNS
SK-MEL-2 melanoma = tested on: SK-MEL-2 melanoma
SK-MEL-28 melanoma = tested on: SK-MEL-28 melanoma
SK-MEL-5 melanoma = tested on: SK-MEL-5 melanoma
SK-OV-3 ovarian = tested on: SK-OV-3 ovarian
SN12C renal = tested on: SN12C renal
SNB-19 CNS = tested on: SNB-19 CNS
SNB-75 CNS = tested on: SNB-75 CNS
SR leukemia = tested on: SR leukemia
SW-620 colon = tested on: SW-620 colon
T-47D breast = tested on: T-47D breast
TK-10 renal = tested on: TK-10 renal
U251 CNS = tested on: U251 CNS
UACC-257 melanoma = tested on: UACC-257 melanoma
UACC-62 melanoma = tested on: UACC-62 melanoma
UO-31 renal = tested on: UO-31 renal
M14 melanoma = tested on: M14 melanoma
NCI/ADR-RES ovarian = tested on: NCI/ADR-RES ovarian

Oc1ccc(CSc2nnc(-c3ccccc3)o2)c2cccnc12
GI50 (786-0 renal): 3.14 µM
TGI (786-0 renal): 11.9 µM
GI50 (A498 renal): 4100 nM
TGI (A498 renal): > 100 µM
GI50 (A549 NSCLC): 2690 nM
TGI (A549 NSCLC): > 100 µM
GI50 (ACHN renal): 2030 nM
TGI (ACHN renal): 5.89 µM
GI50 (BT-549 breast): 923 nM
TGI (BT-549 breast): > 100 µM
GI50 (CAKI-1 renal): 2870 nM
TGI (CAKI-1 renal): > 100 µM
GI50 (CCRF-CEM leukemia): 1130 nM
TGI (CCRF-CEM leukemia): > 100 µM
GI50 (COLO 205 colon): 59.3 µM
TGI (COLO 205 colon): > 100 µM
GI50 (DU-145 prostate): 3410 nM
TGI (DU-145 prostate): > 100 µM
GI50 (EKVX NSCLC): 2.62 µM
TGI (EKVX NSCLC): > 100 µM
GI50 (HCC-2998 colon): 2260 nM
TGI (HCC-2998 colon): > 100 µM
GI50 (HCT-116 colon): 1650 nM
TGI (HCT-116 colon): > 100 µM
GI50 (HCT-15 colon): 797 nM
TGI (HCT-15 colon): > 100 µM
GI50 (HL-60(TB) leukemia): 1390 nM
TGI (HL-60(TB) leukemia): 6.62 µM
GI50 (HOP-62 NSCLC): 2330 nM
TGI (HOP-62 NSCLC): 30.6 µM
GI50 (HOP-92 NSCLC): 499 nM
TGI (HOP-92 NSCLC): 5.36 µM
GI50 (HS 578T breast): 721 nM
TGI (HS 578T breast): > 100 µM
GI50 (HT29 colon): 6.97 µM
TGI (HT29 colon): > 100 µM
GI50 (IGROV1 ovarian): 2420 nM
TGI (IGROV1 ovarian): > 100 µM
GI50 (K-562 leukemia): 2050 nM
TGI (K-562 leukemia): > 100 µM
GI50 (KM12 colon): 724 nM
TGI (KM12 colon): > 100 µM
GI50 (LOX IMVI melanoma): 1560 nM
TGI (LOX IMVI melanoma): 11.3 µM
GI50 (MALME-3M melanoma): 2800 nM
TGI (MALME-3M melanoma): > 100 µM
GI50 (MCF7 breast): 2450 nM
TGI (MCF7 breast): > 100 µM
GI50 (MDA-MB-231 breast): 4.01 µM
TGI (MDA-MB-231 breast): > 100 µM
GI50 (MDA-MB-435): 1080 nM
TGI (MDA-MB-435): > 100 µM
GI50 (MOLT-4 leukemia): 2030 nM
TGI (MOLT-4 leukemia): > 100 µM
GI50 (NCI-H226 lung): 3.78 µM
TGI (NCI-H226 lung): > 100 µM
GI50 (NCI-H23 lung): 2440 nM
TGI (NCI-H23 lung): 14 µM
GI50 (NCI-H460 lung): 527 nM
TGI (NCI-H460 lung): > 100 µM
GI50 (NCI-H522 lung): 2330 nM
TGI (NCI-H522 lung): > 100 µM
GI50 (OVCAR-4 ovarian): 4340 nM
TGI (OVCAR-4 ovarian): > 100 µM
GI50 (OVCAR-5 ovarian): 6.65 µM
TGI (OVCAR-5 ovarian): > 100 µM
GI50 (OVCAR-8 ovarian): 1770 nM
TGI (OVCAR-8 ovarian): > 100 µM
GI50 (PC-3 prostate): 1030 nM
TGI (PC-3 prostate): > 100 µM
GI50 (RPMI-8226 leukemia): 772 nM
TGI (RPMI-8226 leukemia): > 100000 nM
GI50 (RXF 393 renal): 3.27 µM
TGI (RXF 393 renal): 97.2 µM
GI50 (SF-268 CNS): 920 nM
TGI (SF-268 CNS): > 100 µM
GI50 (SF-295 CNS): 1390 nM
TGI (SF-295 CNS): 21 µM
GI50 (SF-539 CNS): 1490 nM
TGI (SF-539 CNS): 15.8 µM
GI50 (SK-MEL-2 melanoma): 2550 nM
TGI (SK-MEL-2 melanoma): 29.8 µM
GI50 (SK-MEL-28 melanoma): 2290 nM
TGI (SK-MEL-28 melanoma): > 100 µM
GI50 (SK-MEL-5 melanoma): 1830 nM
TGI (SK-MEL-5 melanoma): 6.4 µM
GI50 (SK-OV-3 ovarian): 2870 nM
TGI (SK-OV-3 ovarian): 15 µM
GI50 (SN12C renal): 2640 nM
TGI (SN12C renal): > 100 µM
GI50 (SNB-19 CNS): 817 nM
TGI (SNB-19 CNS): 19.3 µM
GI50 (SNB-75 CNS): 1470 nM
TGI (SNB-75 CNS): 15.6 µM
GI50 (SR leukemia): 873 nM
TGI (SR leukemia): > 100 µM
GI50 (SW-620 colon): 2570 nM
TGI (SW-620 colon): > 100 µM
GI50 (T-47D breast): 2550 nM
TGI (T-47D breast): > 100 µM
GI50 (TK-10 renal): 2520 nM
TGI (TK-10 renal): 9.86 µM
GI50 (U251 CNS): 783 nM
TGI (U251 CNS): > 100 µM
GI50 (UACC-257 melanoma): 2620 nM
TGI (UACC-257 melanoma): 8.92 µM
GI50 (UACC-62 melanoma): 2190 nM
TGI (UACC-62 melanoma): 6.01 µM
GI50 (UO-31 renal): 1560 nM
TGI (UO-31 renal): 7.47 µM

O=C(Nc1cc(C(F)(F)F)cc(C(F)(F)F)c1)Nc1ccc2oc(=O)ccc2c1
GI50 (A498 renal): 1670 nM
TGI (A498 renal): 4.97 µM
GI50 (A549 NSCLC): 2140 nM
TGI (A549 NSCLC): > 100 µM
GI50 (ACHN renal): 1290 nM
TGI (ACHN renal): > 100 µM
GI50 (BT-549 breast): 2360 nM
TGI (BT-549 breast): 6.56 µM
GI50 (CAKI-1 renal): 1250 nM
TGI (CAKI-1 renal): 4.86 µM
GI50 (CCRF-CEM leukemia): 1220 nM
TGI (CCRF-CEM leukemia): > 100 µM
GI50 (COLO 205 colon): 1.75 µM
TGI (COLO 205 colon): 3.46 µM
GI50 (DU-145 prostate): 2000 nM
TGI (DU-145 prostate): > 100 µM
GI50 (EKVX NSCLC): 3.92 µM
TGI (EKVX NSCLC): > 100 µM
GI50 (HCC-2998 colon): 2770 nM
TGI (HCC-2998 colon): > 100 µM
GI50 (HCT-15 colon): 2110 nM
TGI (HCT-15 colon): > 100 µM
GI50 (HL-60(TB) leukemia): 705 nM
TGI (HL-60(TB) leukemia): 5.74 µM
GI50 (HOP-92 NSCLC): 1410 nM
TGI (HOP-92 NSCLC): 4.89 µM
GI50 (HS 578T breast): 2440 nM
TGI (HS 578T breast): 6.36 µM
GI50 (HT29 colon): 2.47 µM
TGI (HT29 colon): > 100 µM
GI50 (IGROV1 ovarian): 1510 nM
TGI (IGROV1 ovarian): > 100 µM
GI50 (K-562 leukemia): 782 nM
TGI (K-562 leukemia): > 100 µM
GI50 (LOX IMVI melanoma): 1600 nM
TGI (LOX IMVI melanoma): 4.37 µM
GI50 (M14 melanoma): 2710 nM
TGI (M14 melanoma): > 100 µM
GI50 (MALME-3M melanoma): 1870 nM
TGI (MALME-3M melanoma): 5.08 µM
GI50 (MCF7 breast): 2880 nM
TGI (MCF7 breast): > 100 µM
GI50 (MDA-MB-231 breast): 2.77 µM
TGI (MDA-MB-231 breast): > 100 µM
GI50 (MDA-MB-435): 2970 nM
TGI (MDA-MB-435): > 100 µM
GI50 (MOLT-4 leukemia): 758 nM
TGI (MOLT-4 leukemia): > 100 µM
GI50 (NCI-H522 lung): 1400 nM
TGI (NCI-H522 lung): 5 µM
GI50 (NCI/ADR-RES ovarian): 2010 nM
TGI (NCI/ADR-RES ovarian): > 100 µM
GI50 (OVCAR-4 ovarian): 1250 nM
TGI (OVCAR-4 ovarian): > 100 µM
GI50 (OVCAR-8 ovarian): 1960 nM
TGI (OVCAR-8 ovarian): > 100 µM
GI50 (PC-3 prostate): 753 nM
TGI (PC-3 prostate): > 100 µM
GI50 (RPMI-8226 leukemia): 426 nM
TGI (RPMI-8226 leukemia): 2360 nM
GI50 (SF-268 CNS): 2950 nM
TGI (SF-268 CNS): > 100 µM
GI50 (SF-295 CNS): 1440 nM
TGI (SF-295 CNS): > 100 µM
GI50 (SK-MEL-2 melanoma): 1680 nM
TGI (SK-MEL-2 melanoma): 3.41 µM
GI50 (SK-MEL-28 melanoma): 2790 nM
TGI (SK-MEL-28 melanoma): > 100 µM
GI50 (SK-MEL-5 melanoma): 1230 nM
TGI (SK-MEL-5 melanoma): 2.51 µM
GI50 (SK-OV-3 ovarian): 2320 nM
TGI (SK-OV-3 ovarian): 5.7 µM
GI50 (SNB-19 CNS): 1230 nM
TGI (SNB-19 CNS): > 100 µM
GI50 (SNB-75 CNS): 1930 nM
TGI (SNB-75 CNS): 6.59 µM
GI50 (SR leukemia): 997 nM
TGI (SR leukemia): 5.09 µM
GI50 (SW-620 colon): 3020 nM
TGI (SW-620 colon): > 100 µM
GI50 (TK-10 renal): 2990 nM
TGI (TK-10 renal): > 100 µM
GI50 (U251 CNS): 1290 nM
TGI (U251 CNS): > 100 µM
GI50 (UACC-257 melanoma): 2020 nM
TGI (UACC-257 melanoma): 6.13 µM
